Tests used:
[1] = Stability in gastric and intestinal juice; assay type: in vitro ADME; details: data not shown
[2] = system: VZV-ORF57-ΔTS; test: microbe, parasite or virus in culture; assay type: cell-based, Varicella zoster virus; details: Human alphaherpesvirus 3, ARPE-19
[3] = system: VZV-ORF57-ΔTKTS; test: microbe, parasite or virus in culture; assay type: cell-based, Varicella zoster virus; details: Human alphaherpesvirus 3, ARPE-19
[4] = Neutral red dye uptake cytotoxicity assay in ARPE-19 cells; details: human
[5] = system: VZV-ORF57-ΔTK; test: microbe, parasite or virus in culture; assay type: cell-based, Varicella zoster virus; details: Human alphaherpesvirus 3, ARPE-19
[6] = In vitro stability in mouse liver homogenates (LC-MS/MS); assay type: in vitro ADME, BALB/c mice; details: 37 °C; converted to L-BHDU and L-BHDU-MP
Description: The antiviral efficacy of POM-L-BHDU-MP prompted us to perform pharmacokinetic studies on POM-L-BHDU-MP in vitro and in vivo. […] In liver homogenates, POM-L-BHDU-MP converted to L-BHDU and L-BHDU-MP (Figure 4). POM-L-BHDU-MP incubated with homogenized mouse liver was unstable and converted to L-BHDU and L-BHDU-MP. The concentration of L-BHDU increased steadily, reaching 1.9 μg/mL after 60 min. L-BHDU-MP appeared rapidly and reached maximal concentration (4.6 μg/mL) after 4 min, which is 32-fold higher than the corresponding L-BHDU concentration. Thus, POM-L-BHDU-MP likely converts rapidly into L-BHDU-MP and more slowly into L-BHDU in the liver.
Untreated BALB/c mice were euthanized, and their livers were immediately removed. […] The concentration of POM-L-BHDU-MP, L-BHDU, and L-BHDU-MP were determined using LC-MS/MS.
The primary stock solutions for the calibration were prepared at 0.5 mg/mL for L-BHDU, 1 mg/mL for POM-L-BHDU-MP, and 1 mg/mL for L-BHDU-MP. […] The samples were analyzed in a negative ESI mode. […] The collision gas was argon with a collision cell pressure of 3.18 × 10^–3 mbar, and the collision energy was 30 V. A multiple reaction monitoring (MRM) function was used to quantify the analytes using the following ion transitions: 266.1 → 223.2 for AZT (ISTD), 318.7 → 80.7 for L-BHDU, 398.7 → 180.9 for L-BHDU-MP, and 626.6 → 325 for POM-L-BHDU-MP.

CC(C)(C)C(=O)OCOP(=O)(OCOC(=O)C(C)(C)C)OC[C@H]1OC[C@@H](n2cc(/C=C/Br)c(=O)[nH]c2=O)O1 [POM-L-BHDU-MP (41), Bis(POM) Prodrug of L-BHDU-MP]
stability in gastric and intestinal juice [1]: good stability | EC50 [2]: 1.2 nM | EC50 [3]: > 2000 nM | CC50 at 72 h [4]: > 100000 nM | EC50 [5]: > 2000 nM | stability in homogenized mouse liver [6]: unstable

Reference: article PMC10226046, “Prodrug Strategies for the Development of β-L-5-((E)-2-Bromovinyl)-1-((2S,4S)-2-(hydroxymethyl)-1,3-(dioxolane-4-yl))uracil (L-BHDU) against Varicella Zoster Virus (VZV)” (Journal of Medicinal Chemistry, 2023)
